From article PMC8901119 (Chemical Science, 2021)
Where “and” joins values, the source holds several entries; their conditions need not be identical. Equal entries are not always repeated. Starred links: 1 amine or outer side, 2 acyl side, 3 side chain; linkers in the order of their positions; H or OH if unused. Non-standard residues stand in square brackets, D forms with d. Residues, ends and D or L forms follow the SMILES beside them. Ala(7-MeO-coumarin-4-yl) = COc1ccc2c(C[C@H](N)C(=O)O)cc(=O)oc2c1; X1 = C[C@H](NC(=S)[C@H](CCCNC(=N)N)N[*:1])C(=O)[*:2]

Columns and labels:
Cathepsin L = molecular target: T1, Cathepsin L (Homo sapiens, UniProt P07711); assay: Cathepsin L inhibition assay in MDA-MB-231 cells (Magic Red); type: cell-based; conditions: for Cathepsin Activity (%), single technical replicates: normalized to 0.5% DMSO + Magic Red control, biological replicates 1 and 2
T1 construct: host or cells: MDA-MB-231 cells
Description: (§1) Phan et al. Electronic SupplementaryInformation
Cell Culture & Cathepsin L Inhibition Assays in MDA -MB-231 Cells
MDA-MB-231 cells (ATCC, #HBT-26) were seeded at 1 x 10^5/well in a black, 24-well, TC-treated plate (Corning). Cells were cultured in 400 µL media per well containing DMEM (Corning), 10% Fetal Bovine Serum (FBS; Atlanta Biologicals), and 1% Penicillin/Streptomycin (Gibco) at 37 °C in 5% CO2. After 48 hours, the cells in each well were treated with 400 µL fresh media containing either 0.5 % DMSO (sterile filtered; Sigma Aldrich), 20 µM SID 26681509 (a known Cts L inhibitor; Tocris), 10 µM E-64 (a known cell-permeable pan cathepsin inhibitor; Tocris), or 50 µM
RS1A. Cathepsin L activity in MDA-MB-231 cells were then evaluated using ICT’s Magic Red TM cathepsin-L substrate, MR-(FR) 2, according to the manufacturer’s protocol (Immunochemistry Technologies, LLC). After incubating the cells for 24 hours in the experimental conditions, 16 µL sterile Milli-Q H 2O (for the unstained cell controls) or 16 µL 26X Magic Red staining solution was added to each well, and the 24-well plate was covered with foil for 60 minutes in a 37°C incubator with 5% CO2. The media was removed from the cell monolayer surface and the cells were rinsed Dulbecco’s phosphate-buffered saline containing Mg 2+ and Ca2+ (DPBS; Corning) (2 x 500 µL DPBS/well with 1 min/rinse). The cells were then immediately visualized at 20X magnification with an Olympus CKX53 microscope with a Reflected Light Fluorescence Illuminator equipped with a green 530-550 nm exciter filler, 570 nm dichroic mirror , and a long pass 575 nm emission/barrier filter. Images were taken by Olympus EP50 camera via the Olympic EP app on an iPhone XR. Positive cells stained with Magic Red would appear red with more brightly stained vacuoles and lysosomes. […]
Cell fluorescence from raw images was analyzed using ImageJ -Fiji. The color images were first split into RGB channels; all Red-channel images were then quantified for integrated fluorescence density across the entire images at the same threshold. […]

Cts L [1] = system: Cts L; set-up: method as in earlier work; conditions: 10 µM, 24-hour treatment; ref 20 (ESI); cited from earlier work
Cts S = molecular target: T2, Cts S (Homo sapiens, UniProt P25774); assay: Cathepsin S inhibition assay with Z-LR-AMC; type: biochemical; conditions: approximate; competitive model
T2 construct: purchased Sigma-Aldrich; host or cells: FreeStyle 293-F cells
Description: as §1
Cathepsin S Inhibition Assay. For cathepsin S (Cts S, 2 mg/mL, solution; recombinant, expressed in FreeStyle™ 293-F cells, ≥90% pure by SDS-PAGE), various concentrations of the substrate Z- […]
A stock solution of 2 mg/mL enzyme in 45 mM Tris-HCl, pH 8.0, 124 mM NaCl, 2.4 mM KCl, 225 mM imidazole, 3 mM DTT, and 10% glycerol was diluted with assay buffer containing 5 mM DTT. Peptide (inhibitor) stock solutions […]
with the assay buffer. A 20 mM stock solution of the chromogenic substrate Z-LR-AMC (Bachem; […]
assay to ensure reproducibility. […]
progress curve (Figure S23). Similar to the analysis with Cts L, these curves were fit to Michaelis - Menten enzyme kinetic model in Prism 8 (GraphPad Software; La Jolla, CA) using Eq. S1 to determine Vmax and KM (Table S21). 5 Turnover number (k cat) was calculated by dividing Vmax by the enzyme concentration (Table S21).
(§2) Similar analysis was done for Cts V, Cts K, Cts S, and Cts B to evaluate and approximate the inhibitory effects of the thiopeptide RS1A. Initial evaluation of the kinetic parameters were obtained […]
(§3) 24), then the data were further analyzed with the non-linear regression method with a mixed - […]
the mechanism with the parameter α. Further fitting to an appropriate model (e.g. uncompetitive, competitive, or non-competitive model) was performed if needed. […]

Cts B = molecular target: T3, Cts B (Homo sapiens, UniProt P07858); assay: Cathepsin B inhibition assay with Z-RR-AMC; type: biochemical; conditions: approximate; competitive model
T3 construct: cathepsin B (Cts B, ≥1,500 units/mg protein, solution; from human liver); purchased Sigma-Aldrich; host or cells: human liver (tissue-purified)
Description: as §1
Cathepsin B Inhibition Assay. For cathepsin B (Cts B, ≥1,500 units/mg protein, solution; from […]
and 5 mM DTT (pH 5.5). A stock solution of enzyme in 50 mM sodium acetate, pH 5.0, with 1 […]
Diluted solution of Cts B was […]
kinetic model in Prism 8 (GraphPad Software; La Jolla, CA) using Eq. S1 to determine Vmax and KM (Table S22). 5 Turnover number (k cat) was calculated by dividing Vmax by the enzyme concentration(Table S22).
as §2, §3
(§4) the mechanism with the parameter α. Further fitting to an appropriate model (e.g. uncompetitive, competitive, or non-competitive model) was performed if needed. The approximate kinetic parameters resulted from best fit models for the RS1A peptide and the corresponding proteases are […]
(§5) Table S24. Approximate Kinetic Parameters for Cts L, V, K, S, and B Inhibition by R S1A Peptide (μHLFR SAμ).
(§6) Protease α (Best Fitted Model) KI (μM) αKI or KI'
(§7) Cts S Very large (Competitive) 53.47 ± 11.42 - Cts B Very large (Competitive) >> 50 -

Cts L [2] = molecular target: T4, Cts L (Homo sapiens, UniProt P07711); assay: Cathepsin L inhibition assay with Z-FR-AMC; conditions: Cts L, mixed inhibition model fit, Z-FR-AMC, pH 5.5, 27 °C
Description: The peptide inhibitors were pre-incubated with the appropriate proteases in the assay buffer for 10 min to ensure full interactions prior being added to the fluorogenic substrates. The fluorescence of the reaction was monitored as a function of time at 460 nm with an excitation wavelength of 380 nm by a Tecan M1000 plate reader. Each assay was done in triplicates to ensure reproducibility.
Cathepsin L Inhibition Assay. For cathepsin L (Cts L, ≥ 0.5 units/mg protein, solution; from human liver), various concentrations of the substrate Z-FR-AMC (1 μM, 2 μM, 3 μM, 5 μM, 7
μM, 10 μM, 15 μM, and 20 μM) were reacted with 37.9 nM Cts L in a 96-well plate at 27 °C.
Assay buffer consisted of100 mM sodium acetate, 100 mM NaCl, 1 mM EDTA, and 5 mM DTT
with this KSP1 peptide were conducted in 12.3 mM Na2HPO4, 87.7 mM NaH2PO4, 100 mM NaCl,
5 mM DTT, 1 mM EDTA, pH 6.0 at 27 °C – the buffer condition used for this peptide construct
3 A stock solution of 220 μg/mL enzyme in 20 mM malonate, 1 mM EDTA, 400
mM NaCl, pH 5.5 was diluted with the assay buffer. Peptide (inhibitor) stock solutions were
prepared in a minimal amount of Milli-Q water then diluted to the desired concentrations with the
assay buffer. A 5 mM stock solution of the fluorogenic substrate Z-FR-AMC (Bachem; Torrance, CA, USA) was initially prepared in DMSO and diluted with assay buffer. The diluted solution of
Cts L was incubated in the assay buffer with or without the peptide inhibitor at room temperature
for 10 min. For each 50 μL reaction, 25 μL of this Cts L solution (either with or without the peptide inhibitor) was added to 25 μL diluted Z-FR-AMC substrate to initiate the reaction. The fluorescence of the reaction was monitored as a function of time at 460 nm with an excitation wavelength of 380 nm on the Tecan M1000 plate reader. Three independent trials were performed
for each assay to ensure reproducibility. For analysis, the fluorescence data was converted to rates
of proteolysis in terms of concentration (μM/min) by a conversion factor calculated from a linear
fit of the endpoint fluorescence at complete hydrolysis versus substrate concentration. The initial reaction rate was then calculated by extracting the slope of a linear fit of the first 2 min of the
progress curve (Figures S13-S19). These curves were fit to a Michaelis-Menten enzyme kinetic
Kinetics Analysis of the Peptide Inhibitors of Cathepsin L, V, K, B, and S
For Cts L, from initial evaluation of the kinetic parameters obtained from fitting to Michaelis-
data from Z-FR-AMC inhibition assays with Cts L was thus further fitted to a general Mixed
Inhibition Model in GraphPad Prism version 8.4.3 (GraphPad Software; La Jolla, CA), using
A mixed Inhibition Mechanism for Reversible Inhibitors. Abbreviations: E: enzymes;
S: substrate; I: inhibitor; P: product; EI: enzyme-inhibitor complex; ESI: enzyme-substrate-
inhibitor complex; KI: dissociation constant for the EI complex; αK I (also known as KI'):
dissociation constant for the ESI complex.
This general mixed-inhibition model uses a global fitting in which Vmax, KM, KI, constant α and are
shared. The constant α here determines the degree to which inhibitor binding changes the affinity
of the enzyme for substrate; the value of α is always greater than zero.5, 6 An α = 1 (K I = αKI)
complex (ES); the model then becomes identical to a noncompetitive inhibition model.5, 6 When α
> 1, the inhibitor binds preferentially to the free enzyme (E); if α = ∞, the inhibitor binds almost
exclusively the free enzyme and this model becomes identical to competitive inhibition.5, 6 If 0 <α

Cts L [3] = molecular target: T4, Cts L; assay: Cathepsin L activity assay with HepG2 whole cell lysate; type: biochemical; set-up: Cts L activity in human hepatocellular carcinoma HepG2 whole cell lysate; host or cells: HepG2 whole cell lysate; conditions: 0.05 mg/mL lysate, 200 μM Ac-FR-AFC, 37 °C, 1 h
Description: Cts L activity in human hepatocellular carcinoma HepG2 whole cell lysate (200 μg at 2.5 mg mL^−1; ab166833; Abcam, Cambridge, MA) was evaluated using a fluorometric Cathepsin L Activity Assay Kit (ab65306; Abcam, Cambridge, MA, USA) following the manufacturer's protocols. […] The cell lysate and the peptide inhibitor were incubated at room temperature for 10 min. A total of 2 μL of 10 mM CL substrate Ac-FR-AFC substrate (to a final concentration of 200 μM) was then added to each well, except the Lysate Background Control wells. Different concentrations (56 nM, 560 nM, and 1 μM) of SID 26681509, a known Cts L inhibitor, were used as positive controls. The samples were mixed; the plate was sealed to avoid evaporation and incubated at 37 °C for 1 h. The fluorescence of each sample was measured at 505 nm with an excitation wavelength of 400 nm on the Tecan plate reader. […]
Cts L activity in human hepatocellular carcinoma HepG2 whole cell lysate (200 µg at 2.5 mg/ml; ab166833; Abcam, Cambridge, MA, USA) was evaluated using a fluorometric Cathepsin L Activity Assay Kit (ab65306; Abcam) following the manufacturer’s protocols. […] The fluorescence of each sample was measured […]
fluorescence data shown in Figure 4 in the main text are the average of three replicates. […]

[4] = Stability of peptides in HepG2 whole cell lysate; type: in vitro ADME; conditions: human, 20 μM peptide, 0.05 mg/mL lysate, HPLC
Description: Stability of Peptides in HepG2 Whole Cell Lysate
Using the same conditions as the previous Cts L Activity Assay in HepG2 Whole Cell Lysate, 50 μL peptide (either R1A or RS1A; final concentration 20 μM) was incubated in 50 μL HepG2 whole cell lysate (to a final concentration of 0.05 mg/mL) in the assay buffer for different time points.
The all-amide peptide, R 1A, was incubated for t = 0, 5, 10, 15, 20, and 30 minutes. The thioamide peptide, RS1A, was incubated for t = 0, 2, 6, 8, 10, and 24 hours. After incubation for the desired amount of time, 100 μL methanol was added to the mixture and incubated at -20 °C for 10 minutes before spinning down at 13,000 rpm for 10 minutes. Then, 180 μL of each mixture was further diluted with 220 μL Milli-Q water to a total volume of 400 μL before adding 1 μL 0.42 mM coumarin internal standard for HPLC analysis. The coumarin internal standard was used to normalize the amount of intact peptide in each sample. A Phenomenex Luna® Omega 5 µm PS C18 100 Å analytical column was used to analyze all samples using the same gradient of 20-40 % B over 20 minutes (Solvent A: 0.1% TFA in Milli-Q water; Solvent B: 0.1% TFA in acetonitrile).
Representative HPLC spectra (325 nm) at different time points were also shown to confirm the stability of the peptides in HepG2 whole cell lysate (Figure S26 A & B). MALDI MS was used to confirm the mass from each fraction from the HPLC from experiment with the all-amide peptide (R 1A – expected [M+H]+ = 1133.51 m/z) and the thioamide peptide ( RS1A – expected [M+H]+ = 1149.48 m/z). To calculate the percent intact peptide for each sample, the average ratio of intact peptide to internal standard was compared to that ratio at t = 0. For each time point, the experiment

Cts V = molecular target: T5, Cts V (Homo sapiens, UniProt O60911); assay: Cathepsin V inhibition assay with Z-LR-AMC; type: biochemical; conditions: pH 5.5, 27 °C, approximate
T5 construct: purchased Sigma-Aldrich; host or cells: FreeStyle 293-F cells
Description: as §1
Cathepsin V Inhibition Assay. For cathepsin V (Cts V, 0.38 mg/mL, solution; recombinant, expressed in FreeStyle™ 293-F cells, ≥90% pure by SDS-PAGE), various concentrations of the […]
A stock solution of 0.35 mg/mL enzyme
Three independent trials were
Similar to the analysis with Cts L, these curves
CA) using Eq. S1 to determine Vmax and KM (Table S19). 5 Turnover number (k cat) was calculated by dividing V max by the enzyme concentration (Table S19).
as §2, §3, §4, §5, §6, §7

SARS-CoV-2 pseudovirus = system: SARS-CoV-2 pseudovirus; set-up: method as in PMID 32221306; conditions: HEK 293/hACE2 cells; cited from earlier work

T4 sequence (P07711 114-333): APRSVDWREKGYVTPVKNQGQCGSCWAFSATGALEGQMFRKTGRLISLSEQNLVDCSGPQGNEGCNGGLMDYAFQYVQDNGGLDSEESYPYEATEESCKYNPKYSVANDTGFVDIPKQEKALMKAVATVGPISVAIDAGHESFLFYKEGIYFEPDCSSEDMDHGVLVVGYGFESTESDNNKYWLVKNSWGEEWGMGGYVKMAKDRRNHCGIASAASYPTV
T1 sequence (P07711 114-333): as above
T2 sequence (P25774 115-331): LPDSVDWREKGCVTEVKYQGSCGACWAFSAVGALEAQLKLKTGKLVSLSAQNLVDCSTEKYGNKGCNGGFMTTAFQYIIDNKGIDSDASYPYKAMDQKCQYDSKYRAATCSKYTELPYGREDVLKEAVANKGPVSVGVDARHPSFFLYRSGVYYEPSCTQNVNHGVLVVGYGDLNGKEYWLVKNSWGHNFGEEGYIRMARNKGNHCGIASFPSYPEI
T5 sequence (O60911 114-334): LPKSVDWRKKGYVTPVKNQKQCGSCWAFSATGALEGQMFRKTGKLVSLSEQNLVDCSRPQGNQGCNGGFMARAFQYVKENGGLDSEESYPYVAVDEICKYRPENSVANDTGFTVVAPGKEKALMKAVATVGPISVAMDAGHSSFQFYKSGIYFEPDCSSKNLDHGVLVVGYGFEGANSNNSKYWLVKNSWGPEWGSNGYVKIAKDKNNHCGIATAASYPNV

CC(C)C[C@H](NC(=O)[C@H]1O[C@@H]1C(=O)O)C(=O)NCCCCN=C(N)N [E-64]
Reduction of Cts L activity in MDA-MB-231 cells (Cathepsin L; 10 µM, 24 hours): 32%
Cathepsin Activity (%), single technical replicates (Cathepsin L; 10 uM, 10 µM): 74.2204% and 67.3402% and 72.3857% and 56.9211% and 49.1973% and 90.0663%
Reduction of Cts L activity in MDA-MB-231 cells (Cts L [1]): 30-40%

COc1ccc2c(C[C@H](NC(=O)[C@H](C)NC(=S)[C@H](CCCNC(=N)N)NC(=O)[C@H](Cc3ccccc3)NC(=O)[C@H](CC(C)C)NC(=O)[C@H](Cc3c[nH]cn3)NC(=O)[C@@H](N)Cc3cc(=O)oc4cc(OC)ccc34)C(=O)O)cc(=O)oc2c1 [RS1A] (H-[Ala(7-MeO-coumarin-4-yl)]HLF[X1][Ala(7-MeO-coumarin-4-yl)]-OH)
Ki (Cts S): 53.5 ± 11.4 µM
Ki (Cts B): > 50 µM
Ki (Cts L [2]): 1.11 ± 0.22 µM

COc1ccc2c(C[C@H](NC(=O)[C@H](C)NC(=S)[C@H](CCCNC(=N)N)NC(=O)[C@H](Cc3ccccc3)NC(=O)[C@H](CC(C)C)NC(=O)[C@H](Cc3c[nH]cn3)NC(=O)[C@@H](N)Cc3cc(=O)oc4cc(OC)ccc34)C(=O)O)cc(=O)oc2c1 [R^S1A] (H-[Ala(7-MeO-coumarin-4-yl)]HLF[X1][Ala(7-MeO-coumarin-4-yl)]-OH)
IC50 (Cts L [3]): 19 µM and 19.3 µM
half-life at 20 μM [4]: 28.6 h
Ki (Cts V): 26.2 ± 8.42 µM

CCc1ccccc1NC(=O)CSC(=O)NNC(=O)[C@H](Cc1c[nH]c2ccccc12)NC(=O)OC(C)(C)C [SID 26681509]
Cathepsin Activity (%), single technical replicates (Cathepsin L; 20 uM, listed as SID, 20 µM): 93.8537% and 84.7857% and 75.9763% and 71.3834% and 62.7105% and 65.0709%
Decrease of SARS-CoV-2 pseudovirus entry (SARS-CoV-2 pseudovirus): more than 76%
